According to the supplement of paper PMC11061612:

What was measured:
Assay in all cases: Bliss excess, mean over the matrix (fraction); higher = more synergy
[1] = test system: LB771-HNC (Head and Neck Carcinoma)
Method in brief: (§1)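 Cell lines grown in DMEM/F12 or RPMI with 10% FBS were plated in 1536-well plates and held 24 hours at 37°C, 5% CO2 before 72 hours of exposure to two-drug dose matrices, with DMSO typically at 0.2%. CellTiter-Glo 2.0 luminescence gave viability, which was converted to inhibition. Vehicle wells were set to 0 and blank wells to 1. Combination Emax is the second-highest inhibition in the matrix, and Bliss excess is the observed combination effect minus the expected EA + EB − EA·EB, where EA and EB are the single-agent effects.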

[2] = test system: PCI-30 (Head and Neck Carcinoma)
Method in brief: as §1

[3] = test system: KYSE-410 (Esophageal Squamous Cell Carcinoma)
Method in brief: as §1

[4] = test system: CAL-54 (Kidney Carcinoma)
Method in brief: as §1

[5] = test system: RT-112 (Bladder Carcinoma)
Method in brief: as §1

[6] = test system: LU-139 (Small Cell Lung Carcinoma)
Method in brief: as §1

[7] = test system: SUP-T1 (T-Lymphoblastic Leukemia)
Method in brief: as §1

HMV-II (Melanoma) = test system: HMV-II (Melanoma)
Method in brief: as §1

NCI-H28 (Mesothelioma) = test system: NCI-H28 (Mesothelioma)
Method in brief: as §1

[8] = test system: OC-314 (Ovarian Carcinoma)
Method in brief: as §1

[9] = test system: MDA-MB-468 (Breast Carcinoma)
Method in brief: as §1

[10] = test system: KARPAS-231 (B-Cell Non-Hodgkin's Lymphoma)
Method in brief: as §1

[11] = test system: TE-4 (Esophageal Squamous Cell Carcinoma)
Method in brief: as §1

[12] = test system: CAL-51 (Breast Carcinoma)
Method in brief: as §1

COLO-829 (Melanoma) = test system: COLO-829 (Melanoma)
Method in brief: as §1

[13] = test system: SW1271 (Small Cell Lung Carcinoma)
Method in brief: as §1

[14] = test system: 8305C (Thyroid Gland Carcinoma)
Method in brief: as §1

[15] = test system: NCI-H747 (Colorectal Carcinoma)
Method in brief: as §1

[16] = test system: RKO (Colorectal Carcinoma)
Method in brief: as §1

[17] = test system: CTB-1 (B-Cell Non-Hodgkin's Lymphoma)
Method in brief: as §1

Row | SMILES | Bliss excess [1] | Bliss excess [2] | Bliss excess [3] | Bliss excess [4] | Bliss excess [5] | Bliss excess [6] | Bliss excess [7] | Bliss excess (HMV-II (Melanoma)) | Bliss excess (NCI-H28 (Mesothelioma)) | Bliss excess [8] | Bliss excess [9] | Bliss excess [10] | Bliss excess [11] | Bliss excess [12] | Bliss excess (COLO-829 (Melanoma)) | Bliss excess [13] | Bliss excess [14] | Bliss excess [15] | Bliss excess [16] | Bliss excess [17]
1 | CN(C)CCCOc1ccc(-c2ccc3ncc4c(c3c2)n(C2CCOCC2)c(=O)n4C)cn1 [AZD0156] + O=C(c1cc(Cc2n[nH]c(=O)c3ccccc23)ccc1F)N1CCN(C(=O)C2CC2)CC1 [Olaparib] (first compound max 3 µM, partner max 3 µM) | 0.033 | -0.0129 | 0.0007 | 0.034 | 0.0239 | 0.0352 | 0.0598 | -0.0287 | -0.0415 | 0.145 | 0.0645 | 0.0651 | 0.0387 | 0.051 | -0.0578 | 0.0098 | -0.014 | -0.0461 | 0.0736 | 
2 | Cc1c2c(nn1C)CSCc1cc(n(C)n1)CSc1cc(c3ccccc3c1)OCCCc1c(C(=O)O)n(C)c3c-2c(Cl)ccc13 [AZD5991] + CCN(CCO)CCCOc1ccc2c(Nc3cc(CC(=O)Nc4cccc(F)c4)[nH]n3)ncnc2c1 [AZD2811] (first compound max 1 µM, 7x7, partner max 1 µM) | 0.0432 | 0.0256 | 0.045 | -0.0018 | 0.125 | 0.0672 | 0.0561 |  | 0.0191 | 0.0457 | -0.0025 | -0.007 | 0.063 | 0.112 | -0.0319 | -0.0403 | -0.0204 | -0.0133 | 0.0201 | -0.0167
3 | NC1(C(=O)N[C@@H](CCO)c2ccc(Cl)cc2)CCN(c2ncnc3[nH]ccc23)CC1 [Capivasertib] + CC(=O)c1c(C)c2cnc(Nc3ccc(N4CCNCC4)cn3)nc2n(C2CCCC2)c1=O [Palbociclib] (first compound max 10 µM, 7x7, partner max 10 µM) | -0.0781 | -0.0554 | 0.0199 | -0.0279 | -0.0324 | -0.0256 | -0.0239 | -0.0138 | -0.0343 | 0.0028 | -0.0075 | -0.044 | 0.0094 | 0.0262 | -0.0549 | 0.043 | -0.0461 | -0.0032 | 0.0625 | 
4 | NC1(C(=O)N[C@@H](CCO)c2ccc(Cl)cc2)CCN(c2ncnc3[nH]ccc23)CC1 [Capivasertib] + CC(C)n1c(=O)n(C)c2cnc3cc(F)c(-c4ccc(OCCCN5CCCCC5)nc4)cc3c21 [AZD1390] (first compound max 10 µM, 7x7, partner max 0.3 µM) | -0.0687 | -0.0488 | -0.0795 | -0.0687 | -0.0581 | -0.0204 | -0.0615 | -0.0435 | -0.0776 | -0.0412 | -0.0464 | -0.0035 | -0.0233 | -0.0972 | -0.126 | -0.0347 | -0.0773 | -0.0791 | -0.0429 | 
5 | NC1(C(=O)N[C@@H](CCO)c2ccc(Cl)cc2)CCN(c2ncnc3[nH]ccc23)CC1 [Capivasertib] + CCN(CCO)CCCOc1ccc2c(Nc3cc(CC(=O)Nc4cccc(F)c4)[nH]n3)ncnc2c1 [AZD2811] (first compound max 10 µM, 7x7, partner max 1 µM) | -0.0549 | -0.0595 | -0.0104 | -0.0357 | -0.0152 | 0.0616 | 0.0016 | -0.0457 | -0.0484 | -0.015 | -0.063 | -0.111 | 0.0241 | 0.0519 | 0.0142 | -0.0113 | 0.0022 | -0.0255 | -0.0055 | 
6 | NC1(C(=O)N[C@@H](CCO)c2ccc(Cl)cc2)CCN(c2ncnc3[nH]ccc23)CC1 [Capivasertib] + COc1nnc2ccc(N3CCC(c4ccc(OCCN5CCN(C)C(=O)[C@H]5C)cc4)CC3)nn12 [AZD5153] (first compound max 10 µM, 7x7, partner max 1 µM) | 0.0208 | 0.0406 | 0.0437 | -0.0039 | 0.0334 | -0.0574 | -0.0296 | 0.014 | -0.062 | -0.0135 | -0.0281 | -0.0391 | 0.0684 | 0.0957 | 0.011 | 0.0529 | 0.014 | -0.042 | 0.0048 | 
7 | NC1(C(=O)N[C@@H](CCO)c2ccc(Cl)cc2)CCN(c2ncnc3[nH]ccc23)CC1 [Capivasertib] + C[C@@H]1COCCN1C2=NC(=NC(=C2)C3(CC3)[S@](=N)(=O)C)C4=C5C=CNC5=NC=C4 [AZD6738] (first compound max 10 µM, 7x7, partner max 10 µM) | -0.0503 | -0.0582 | -0.0369 | -0.0374 | -0.0698 | -0.0083 | -0.0503 | -0.0717 | -0.0702 | -0.024 | -0.0652 | -0.0334 | -0.0349 | -0.0096 | 0.0403 | -0.0657 | -0.0308 | -0.0316 | -0.0207 | 
